Here are results for ten molecules from US10660877B2 (BRISTOL-MYERS SQUIBB COMPANY, priority 2016, dated 2020).

Each structure is given as a SMILES string. Read-outs that look alike come from different tables or passages of the source.

For one assay, the target named is human TLR7 (Homo sapiens (Human), UniProt Q9NYK1). The assay is described as follows: TLR7 inhibition reporter assay (HEK-Blue cells, SEAP reporter, gardiquimod stimulation). In kind it is cell-based. For orientation: Reporter assays use an easily measured gene product as a stand-in for the process of interest.
Another assay addresses human TLR8 (Homo sapiens (Human), UniProt Q9NR97). The assay is described as follows: TLR8 inhibition reporter assay (HEK-Blue cells, SEAP reporter, R848 stimulation).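 Further: compounds tested from 0.05 nM to 50 µM, 22 h at 37 °C, SEAP measured with HEK-Blue Detection, inhibition relative to agonist plus DMSO versus a known inhibitor.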
The target in the next assay is human TLR9 (Homo sapiens (Human), UniProt Q9NR96). The assay is described as follows: TLR9 inhibition reporter assay (HEK-Blue cells, SEAP reporter, ODN2006 stimulation).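 Further: compounds tested over 0.05 nM to 50 µM, 22 h incubation, inhibition taken as SEAP signal drop from agonist plus DMSO wells toward a known inhibitor control.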
The mark [1] stands for this setting: HEK-Blue cells overexpressing human TLR7, gardiquimod 7.5 μM.
[2] abbreviates: read-out: TLR8 IC50, HEK-Blue cells overexpressing human TLR8, R848 15.9 μM.
Where [3] appears, read: read-out: TLR9 IC50, HEK-Blue cells overexpressing human TLR9, ODN2006 5 nM.

Sequence of human TLR7 (Q9NYK1 27-1049): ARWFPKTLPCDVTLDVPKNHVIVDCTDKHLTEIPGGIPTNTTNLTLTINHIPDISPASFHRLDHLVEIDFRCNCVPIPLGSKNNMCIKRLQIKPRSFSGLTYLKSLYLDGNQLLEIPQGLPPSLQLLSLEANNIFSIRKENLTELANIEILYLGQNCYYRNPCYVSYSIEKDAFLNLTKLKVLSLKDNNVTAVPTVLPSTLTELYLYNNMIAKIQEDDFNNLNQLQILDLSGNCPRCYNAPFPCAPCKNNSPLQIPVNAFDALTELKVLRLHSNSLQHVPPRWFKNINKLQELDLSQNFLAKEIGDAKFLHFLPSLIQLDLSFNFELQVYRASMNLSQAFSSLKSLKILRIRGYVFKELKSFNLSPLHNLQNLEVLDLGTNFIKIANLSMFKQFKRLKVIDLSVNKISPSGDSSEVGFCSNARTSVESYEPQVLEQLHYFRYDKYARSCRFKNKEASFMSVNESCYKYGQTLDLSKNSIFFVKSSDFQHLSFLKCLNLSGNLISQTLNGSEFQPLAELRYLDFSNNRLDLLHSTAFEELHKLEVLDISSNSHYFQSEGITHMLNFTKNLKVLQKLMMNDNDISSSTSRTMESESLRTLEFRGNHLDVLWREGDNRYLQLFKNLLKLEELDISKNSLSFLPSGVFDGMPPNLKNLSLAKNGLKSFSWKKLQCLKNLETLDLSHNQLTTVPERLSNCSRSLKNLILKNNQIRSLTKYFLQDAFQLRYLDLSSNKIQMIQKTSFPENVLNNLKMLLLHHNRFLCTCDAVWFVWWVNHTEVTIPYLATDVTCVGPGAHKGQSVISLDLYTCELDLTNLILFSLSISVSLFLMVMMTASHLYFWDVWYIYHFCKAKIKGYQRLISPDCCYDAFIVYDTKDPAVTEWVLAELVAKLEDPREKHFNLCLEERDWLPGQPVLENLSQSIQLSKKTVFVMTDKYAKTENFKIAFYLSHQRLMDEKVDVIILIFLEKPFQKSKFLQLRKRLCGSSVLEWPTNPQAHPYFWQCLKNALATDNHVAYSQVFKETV
Sequence of human TLR8 (Q9NR97 27-1041): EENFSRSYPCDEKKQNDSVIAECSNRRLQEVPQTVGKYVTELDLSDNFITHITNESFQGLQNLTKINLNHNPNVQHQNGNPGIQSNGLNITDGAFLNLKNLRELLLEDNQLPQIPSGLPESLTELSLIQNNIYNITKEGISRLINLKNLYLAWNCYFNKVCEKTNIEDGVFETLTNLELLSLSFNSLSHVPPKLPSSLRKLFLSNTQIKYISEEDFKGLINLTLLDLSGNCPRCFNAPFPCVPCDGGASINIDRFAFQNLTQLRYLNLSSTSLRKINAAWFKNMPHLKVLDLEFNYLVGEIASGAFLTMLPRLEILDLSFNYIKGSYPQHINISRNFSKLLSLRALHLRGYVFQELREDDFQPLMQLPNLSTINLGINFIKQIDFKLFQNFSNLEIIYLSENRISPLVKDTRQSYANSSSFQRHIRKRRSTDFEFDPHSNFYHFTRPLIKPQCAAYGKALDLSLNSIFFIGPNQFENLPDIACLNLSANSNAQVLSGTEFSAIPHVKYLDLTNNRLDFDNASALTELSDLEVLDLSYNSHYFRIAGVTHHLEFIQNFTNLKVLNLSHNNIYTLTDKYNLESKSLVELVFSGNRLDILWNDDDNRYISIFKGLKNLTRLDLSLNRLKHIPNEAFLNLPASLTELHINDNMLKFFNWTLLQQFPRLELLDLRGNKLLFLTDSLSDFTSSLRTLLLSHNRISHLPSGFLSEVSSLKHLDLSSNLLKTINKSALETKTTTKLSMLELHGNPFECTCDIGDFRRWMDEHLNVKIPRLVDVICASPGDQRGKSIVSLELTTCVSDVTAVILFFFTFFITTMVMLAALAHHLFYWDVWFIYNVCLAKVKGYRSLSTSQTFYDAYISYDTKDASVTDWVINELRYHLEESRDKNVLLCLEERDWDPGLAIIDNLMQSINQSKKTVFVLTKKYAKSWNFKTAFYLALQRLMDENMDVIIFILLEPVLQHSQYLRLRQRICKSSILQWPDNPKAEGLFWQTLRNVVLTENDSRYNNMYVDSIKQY
Sequence of human TLR9 (Q9NR96 26-1032): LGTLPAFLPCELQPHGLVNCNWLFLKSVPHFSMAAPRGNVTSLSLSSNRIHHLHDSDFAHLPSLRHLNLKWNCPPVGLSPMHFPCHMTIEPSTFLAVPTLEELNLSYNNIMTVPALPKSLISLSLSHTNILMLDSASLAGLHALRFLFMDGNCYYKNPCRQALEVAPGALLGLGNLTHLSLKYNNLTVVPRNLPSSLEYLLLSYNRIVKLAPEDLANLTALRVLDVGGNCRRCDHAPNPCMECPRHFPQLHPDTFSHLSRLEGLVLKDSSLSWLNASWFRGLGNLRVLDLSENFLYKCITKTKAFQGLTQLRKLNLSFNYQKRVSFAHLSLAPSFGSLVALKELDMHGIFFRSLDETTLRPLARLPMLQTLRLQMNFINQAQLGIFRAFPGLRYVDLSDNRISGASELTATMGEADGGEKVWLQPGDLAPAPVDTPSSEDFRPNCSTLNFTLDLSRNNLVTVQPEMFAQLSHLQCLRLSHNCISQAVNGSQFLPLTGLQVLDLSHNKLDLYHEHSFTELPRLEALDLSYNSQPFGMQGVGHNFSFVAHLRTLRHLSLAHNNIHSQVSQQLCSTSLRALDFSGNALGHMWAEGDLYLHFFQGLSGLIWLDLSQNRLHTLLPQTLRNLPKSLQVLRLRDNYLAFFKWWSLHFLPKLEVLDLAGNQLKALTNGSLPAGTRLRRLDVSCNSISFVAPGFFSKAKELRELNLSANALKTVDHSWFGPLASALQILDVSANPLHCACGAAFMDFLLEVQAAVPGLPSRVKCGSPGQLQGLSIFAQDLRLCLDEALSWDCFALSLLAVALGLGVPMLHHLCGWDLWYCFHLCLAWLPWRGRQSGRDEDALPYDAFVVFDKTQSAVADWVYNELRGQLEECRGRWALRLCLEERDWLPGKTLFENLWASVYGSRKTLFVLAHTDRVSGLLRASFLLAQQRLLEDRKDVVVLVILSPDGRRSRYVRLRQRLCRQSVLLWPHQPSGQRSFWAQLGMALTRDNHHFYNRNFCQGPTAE

On to `CCc1c(-c2ccnc(OC)c2)[nH]c2ccc(C3CCN(CCNC)CC3)cc12` [Example 778, 2-(4-(3-ethyl-2-(2-methoxypyridin-4-yl)-1H-indol-5-yl)piperidin-1-yl)-N-methylethan-1-amine], for which the half-maximal inhibitory concentration (IC50) on human TLR7 (setting [1]) turned out to be 330 nM; at human TLR8 (setting [2]), 100 nM; on human TLR9 (setting [3]), 1940 nM.
In the same order, the values of `Cc1cc(-c2[nH]c3ccc(C4CCN(C(=O)CN5CCCCC5C)CC4)cc3c2C(C)C)cc(C)n1` (stereo not drawn) [Example 377, 1-(4-(2-(2,6-dimethylpyridin-4-yl)-3-isopropyl-1H-indol-5-yl)piperidin-1-yl)-2-(2-methylpiperidin-1-yl)ethan-1-one] are 4.4 nM, 17.5 nM and 514 nM.
For the molecule `Cc1cc(-c2[nH]c3ccc(C4CCN(C5CCCOC5)CC4)cc3c2C(C)C)c(F)cn1` (stereo not drawn) [Example 727, 2-(5-fluoro-2-methylpyridin-4-yl)-3-isopropyl-5-(1-(tetrahydro-2H-pyran-3-yl)piperidin-4-yl)-1H-indole], the half-maximal inhibitory concentration (IC50) at human TLR7 (setting [1]) is 7.3 nM; on human TLR8 (setting [2]) it was 3.5 nM; at human TLR9 (setting [3]), 2920 nM.
Turning to `Cc1cc(-c2[nH]c3ccc(C4CCN(Cc5cnc[nH]5)CC4)cc3c2C(C)C)c(C)cn1` [Example 824, 5-(1-((1H-imidazol-5-yl)methyl)piperidin-4-yl)-2-(2,5-dimethylpyridin-4-yl)-3-isopropyl-1H-indole], the IC50 was 13.8 nM on human TLR7 (HEK-Blue cells, gardiquimod 7.5 μM); 1.2 nM against human TLR8 (TLR8 IC50, HEK-Blue cells, R848 15.9 μM); 729 nM against human TLR9 (TLR9 IC50, HEK-Blue cells, ODN2006 5 nM).
Take `CNC(=O)CN1CCC(c2ccc3[nH]c(-c4cc(C)ncc4F)c(C(C)C)c3c2)CC1` [Example 654, 2-(4-(2-(5-fluoro-2-methylpyridin-4-yl)-3-isopropyl-1H-indol-5-yl)piperidin-1-yl)-N-methylacetamide]: the concentration for half-maximal inhibition (IC50) stood at 2.8 nM against human TLR7 (setting [1]), 3.2 nM on human TLR8 (setting [2]) and 3140 nM at human TLR9 (setting [3]).
On to `Cc1cc(-c2[nH]c3ccc(C4CCN(C5CCOCC5)CC4)cc3c2C(C)C)ccn1` [Example 710, 3-isopropyl-2-(2-methylpyridin-4-yl)-5-(1-(tetrahydro-2H-pyran-4-yl)piperidin-4-yl)-1H-indole], for which the IC50 at human TLR7 (setting [1]) came to 8 nM; at human TLR8 (setting [2]) it was 3 nM; on human TLR9 (setting [3]), 554 nM.
Turning to `CCc1c(-c2cc(C)nc(C)c2)[nH]c2ccc(C3CCN(CC(=O)N(C)C)CC3)cc12` [Example 526, 2-(4-(2-(2,6-dimethylpyridin-4-yl)-3-ethyl-1H-indol-5-yl)piperidin-1-yl)-N,N-dimethylacetamide], the figures for the half-inhibitory concentration (IC50) against human TLR7 (setting [1]), at human TLR8 (setting [2]) and at human TLR9 (setting [3]) were 10.5 nM, 24.7 nM and 102 nM, respectively.
The corresponding values for `Cc1cc(-c2[nH]c3ccc(C4CCN(C(=O)CN(CCO)Cc5ccccc5)CC4)cc3c2C(C)C)cc(C)n1` [Example 396, 2-(benzyl(2-hydroxyethyl)amino)-1-(4-(2-(2,6-dimethylpyridin-4-yl)-3-isopropyl-1H-indol-5-yl)piperidin-1-yl)ethan-1-one] are 4.4 nM, 55.2 nM and 1600 nM.
The corresponding values for `Cc1cc(-c2[nH]c3ccc(C4CCN(C(=O)CN(C)C)CC4)cc3c2C(C)C)cc(C2CC2)n1` [Example 506, 1-(4-(2-(2-cyclopropyl-6-methylpyridin-4-yl)-3-isopropyl-1H-indol-5-yl)piperidin-1-yl)-2-(dimethylamino)ethan-1-one] are 11.1 nM, 42.7 nM and 1100 nM.
The corresponding values for `Cc1cc(-c2[nH]c3ccc(C4CCN(C(=O)C5(C)CCNCC5)CC4)cc3c2C(C)C)cc(C)n1` [Example 197, (4-(2-(2,6-dimethylpyridin-4-yl)-3-isopropyl-1H-indol-5-yl)piperidin-1-yl)(4-methylpiperidin-4-yl)methanone] are 2.8 nM, 23.9 nM and 322 nM.

The IC50 is the point on the concentration scale where inhibition reaches its midpoint.
